Our source for the EC50, IC50 and AC50 values is ChEMBL document CHEMBL1201862, “PubChem BioAssay data set” (2004).

Calls of active or inactive are those of the source.

Experiment [1] relates to Streptococcus sp. 'group A'. Description: Streptococcus pyogenes SK(-)GAS viability under kanamycin – luminescence, BacTiterGlo, confirmation, counter-screen for streptokinase expression inhibitor project, dose response (AID 1900). In kind it is functional, organism-based. A general note: Counterscreens check selectivity or assay interference.
Experiment [2] relates to Streptococcus. Description: Luminescence Microorganism-Based Dose Response Follow up to Identify Compounds Cytotoxic to Streptococcus. [Related pubchem assays: 1677 (Project Summary), 1915, 1914, 1902 (Retest at Dose), 1900 (Counter Screen), 1662 (Primary HTS)]. In kind it is functional, organism-based.
A further experiment concerns the target T1, Streptokinase A (Streptococcus pyogenes serotype M1, UniProt P10520).
T1 sequence (P10520 whole entry): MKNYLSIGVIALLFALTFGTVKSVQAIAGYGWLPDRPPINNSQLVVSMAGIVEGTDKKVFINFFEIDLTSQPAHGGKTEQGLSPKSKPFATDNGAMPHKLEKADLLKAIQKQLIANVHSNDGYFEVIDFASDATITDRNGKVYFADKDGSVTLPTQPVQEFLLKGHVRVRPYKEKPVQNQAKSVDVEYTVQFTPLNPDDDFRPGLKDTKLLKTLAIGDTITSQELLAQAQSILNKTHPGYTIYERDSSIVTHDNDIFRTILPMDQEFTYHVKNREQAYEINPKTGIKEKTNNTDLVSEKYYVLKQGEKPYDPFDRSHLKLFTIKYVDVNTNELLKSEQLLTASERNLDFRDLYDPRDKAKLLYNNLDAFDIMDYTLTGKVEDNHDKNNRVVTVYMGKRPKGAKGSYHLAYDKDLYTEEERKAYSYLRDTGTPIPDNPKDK
Kind of experiment: viability-normalized secreted streptokinase activity reduction – plasminogen activation absorbance, OD405, dose response (AID 1914).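 Further: secreted streptokinase activity via plasminogen activation per viability signal from cell pellet.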 In kind it is functional, Streptococcus pyogenes M1 GAS.

The test system of experiment [3] is Streptococcus. Description: GAS UMAA2166 growth inhibition – luminescence, BacTiterGlo, counter-screen for streptokinase expression inhibitor project, dose response (AID 1915).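 Further: potency for reduction of bacterial viability or growth.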 In kind it is functional, organism-based.
The target of experiment [4] is Eukaryotic translation initiation factor 4H (Homo sapiens, UniProt Q15056). Description: eIF4H binding inhibition – biochemical, uHTS, fluorescence polarization, translation initiation inhibitor project, primary screen (AID 2012). In general terms: Fluorescence polarisation rises when a labelled molecule tumbles more slowly, as on binding a larger partner.
For experiment [5], the target named is Polyadenylate-binding protein 1 (Homo sapiens, UniProt P11940). Kind of experiment: blockers of PABP interaction with poly(A) – biochemical, fluorescence polarization, […] (AID 2014).
For a further experiment, the system named is HeLa. Description: viability loss in HeLa cells – cell-based, 24 h, cherry-picked samples, cytotoxicity control, dose response (AID 504726).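 Further: potency for cytotoxicity as loss of luminescence signal.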 The following applies: Homo sapiens. In kind it is functional.
The target of experiment [6] is T2, RNA-binding protein pos-1 (Caenorhabditis elegans, UniProt G5EF15).
T2 sequence (G5EF15 whole entry): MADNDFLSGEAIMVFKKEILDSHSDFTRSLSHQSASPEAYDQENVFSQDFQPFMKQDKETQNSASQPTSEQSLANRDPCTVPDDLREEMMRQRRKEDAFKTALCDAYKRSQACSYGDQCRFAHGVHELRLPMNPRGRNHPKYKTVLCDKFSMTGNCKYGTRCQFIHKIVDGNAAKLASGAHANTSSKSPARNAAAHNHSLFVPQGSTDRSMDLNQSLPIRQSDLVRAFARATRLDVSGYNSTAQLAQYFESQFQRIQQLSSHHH
Description: disruptors of C. elegans POS-1 RNA interaction – biochemical, fluorescence polarization, dose response (AID 1964).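 Further: purified POS-1 fused to maltose binding protein made in E. coli; potency of compounds blocking POS-1 binding to fluorescent RNA.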

The next experiment deals with Aspartyl aminopeptidase (Plasmodium falciparum 3D7, UniProt Q8I2J3).
Chain of Aspartyl aminopeptidase (Q8I2J3 whole entry): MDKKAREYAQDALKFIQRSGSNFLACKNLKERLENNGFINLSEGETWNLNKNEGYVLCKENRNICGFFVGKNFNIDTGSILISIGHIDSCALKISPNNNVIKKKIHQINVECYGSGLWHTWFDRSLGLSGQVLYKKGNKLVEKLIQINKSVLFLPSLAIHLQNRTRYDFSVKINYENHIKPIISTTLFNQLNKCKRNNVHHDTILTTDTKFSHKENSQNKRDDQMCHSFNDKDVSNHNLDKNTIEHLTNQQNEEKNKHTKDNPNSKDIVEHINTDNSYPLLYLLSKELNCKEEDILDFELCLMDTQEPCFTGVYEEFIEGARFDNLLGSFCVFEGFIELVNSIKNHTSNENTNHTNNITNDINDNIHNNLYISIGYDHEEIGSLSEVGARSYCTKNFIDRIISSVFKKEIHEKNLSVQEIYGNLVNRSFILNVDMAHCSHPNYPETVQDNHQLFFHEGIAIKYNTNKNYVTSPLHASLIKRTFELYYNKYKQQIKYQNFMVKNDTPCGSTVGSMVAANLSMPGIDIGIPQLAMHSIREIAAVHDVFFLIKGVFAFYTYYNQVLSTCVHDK
A short description of experiment [7]: cells. In kind it is functional, cell-based.
For another experiment, the target named is Procathepsin L (Homo sapiens, UniProt P07711).
Chain of Procathepsin L (P07711 whole entry): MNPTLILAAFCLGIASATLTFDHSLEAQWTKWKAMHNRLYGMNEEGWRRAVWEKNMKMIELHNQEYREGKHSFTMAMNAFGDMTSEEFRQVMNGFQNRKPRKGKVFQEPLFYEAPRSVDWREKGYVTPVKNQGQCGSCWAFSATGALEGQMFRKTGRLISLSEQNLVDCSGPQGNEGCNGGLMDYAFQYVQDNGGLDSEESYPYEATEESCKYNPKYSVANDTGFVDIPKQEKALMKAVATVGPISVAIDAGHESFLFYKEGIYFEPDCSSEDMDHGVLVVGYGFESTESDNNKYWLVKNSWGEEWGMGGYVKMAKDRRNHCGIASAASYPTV
The target of experiment [8] is T3, Zinc finger protein mex-5 (Caenorhabditis elegans, UniProt Q9XUB2).
T3 sequence (Q9XUB2 whole entry): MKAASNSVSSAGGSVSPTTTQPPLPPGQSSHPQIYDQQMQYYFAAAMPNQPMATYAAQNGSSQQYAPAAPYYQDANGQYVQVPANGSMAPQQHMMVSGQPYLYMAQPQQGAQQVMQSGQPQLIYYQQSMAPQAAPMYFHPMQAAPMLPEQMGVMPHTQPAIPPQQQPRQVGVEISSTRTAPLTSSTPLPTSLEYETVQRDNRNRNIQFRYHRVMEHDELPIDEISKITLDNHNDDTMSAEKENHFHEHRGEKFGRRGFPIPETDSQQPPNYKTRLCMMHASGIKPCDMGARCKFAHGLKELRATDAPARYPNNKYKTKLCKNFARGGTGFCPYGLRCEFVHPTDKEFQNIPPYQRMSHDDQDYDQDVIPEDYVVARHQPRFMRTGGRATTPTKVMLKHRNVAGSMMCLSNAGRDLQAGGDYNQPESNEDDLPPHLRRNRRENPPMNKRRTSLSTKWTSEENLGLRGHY
Description: potency of MEX-5 RNA-binding blockers – biochemical, C. elegans, fluorescence polarization, dose response (AID 1960).

In the next experiment the target is Large T antigen (Simian virus 40, UniProt P03070). It counts as functional, Betapolyomavirus macacae.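 Further: Confirmatory-stage PubChem screen for compounds that inhibit SV40 T antigen.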
Chain of Large T antigen (P03070 whole entry): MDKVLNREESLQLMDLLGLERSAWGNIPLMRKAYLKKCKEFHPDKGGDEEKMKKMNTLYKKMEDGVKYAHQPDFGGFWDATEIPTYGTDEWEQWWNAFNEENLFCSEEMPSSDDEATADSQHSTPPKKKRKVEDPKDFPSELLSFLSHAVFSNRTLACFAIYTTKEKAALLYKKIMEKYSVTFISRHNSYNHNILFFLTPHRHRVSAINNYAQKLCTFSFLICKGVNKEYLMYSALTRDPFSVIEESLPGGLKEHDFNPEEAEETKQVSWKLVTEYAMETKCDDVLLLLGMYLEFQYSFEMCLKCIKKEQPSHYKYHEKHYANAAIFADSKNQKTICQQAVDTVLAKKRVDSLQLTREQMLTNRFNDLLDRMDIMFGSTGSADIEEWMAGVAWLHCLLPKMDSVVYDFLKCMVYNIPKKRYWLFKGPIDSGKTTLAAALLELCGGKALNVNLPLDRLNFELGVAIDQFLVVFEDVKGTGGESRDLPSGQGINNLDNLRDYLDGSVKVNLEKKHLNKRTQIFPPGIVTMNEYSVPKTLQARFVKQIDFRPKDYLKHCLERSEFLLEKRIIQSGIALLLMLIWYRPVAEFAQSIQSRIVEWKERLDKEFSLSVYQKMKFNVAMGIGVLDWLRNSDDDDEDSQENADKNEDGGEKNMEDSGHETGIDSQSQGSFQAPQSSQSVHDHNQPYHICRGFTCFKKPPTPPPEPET
Experiment [9] is described as follows: cells. It counts as functional, cell-based. The source holds these as a separate data set.
Experiment [10] has as its target FAD-linked sulfhydryl oxidase ALR (Homo sapiens, UniProt P55789). Description: ALR-catalysed DTT oxidation blockers – biochemical, H2O2 detection, luminescence, cherry-pick, dose response (AID 493248).
The next experiment concerns the target Mu-type opioid receptor (Homo sapiens, UniProt P35372). It counts as functional, cell-based.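 Further: U2OS cells with beta-arrestin recruitment to OPRM1 by beta-gal complementation.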
The target of experiment [11] is 5-hydroxytryptamine receptor 2A (Mus musculus, UniProt P35363). It counts as functional, cell-based.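 Further: CHO-K1 cells with tagged receptor and beta-arrestin; agonist potency measured as compound-induced activation of the receptor.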
Chain of 5-hydroxytryptamine receptor 2A (P35363 whole entry): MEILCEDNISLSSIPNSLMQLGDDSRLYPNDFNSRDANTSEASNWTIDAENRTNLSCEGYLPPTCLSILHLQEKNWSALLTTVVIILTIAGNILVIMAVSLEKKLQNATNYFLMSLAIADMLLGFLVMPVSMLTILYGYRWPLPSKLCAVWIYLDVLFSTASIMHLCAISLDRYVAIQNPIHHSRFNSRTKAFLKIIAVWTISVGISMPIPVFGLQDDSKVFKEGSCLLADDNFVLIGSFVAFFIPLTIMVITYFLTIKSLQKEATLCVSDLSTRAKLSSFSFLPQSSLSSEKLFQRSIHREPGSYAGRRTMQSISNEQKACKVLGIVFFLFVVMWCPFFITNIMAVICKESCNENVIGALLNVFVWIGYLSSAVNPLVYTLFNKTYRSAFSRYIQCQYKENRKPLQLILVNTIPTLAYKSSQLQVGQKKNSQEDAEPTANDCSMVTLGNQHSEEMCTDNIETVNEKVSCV
Experiment [12] concerns the target T4, DNA repair and recombination protein RAD54-like (Homo sapiens, UniProt Q92698).
T4 sequence (Q92698 whole entry): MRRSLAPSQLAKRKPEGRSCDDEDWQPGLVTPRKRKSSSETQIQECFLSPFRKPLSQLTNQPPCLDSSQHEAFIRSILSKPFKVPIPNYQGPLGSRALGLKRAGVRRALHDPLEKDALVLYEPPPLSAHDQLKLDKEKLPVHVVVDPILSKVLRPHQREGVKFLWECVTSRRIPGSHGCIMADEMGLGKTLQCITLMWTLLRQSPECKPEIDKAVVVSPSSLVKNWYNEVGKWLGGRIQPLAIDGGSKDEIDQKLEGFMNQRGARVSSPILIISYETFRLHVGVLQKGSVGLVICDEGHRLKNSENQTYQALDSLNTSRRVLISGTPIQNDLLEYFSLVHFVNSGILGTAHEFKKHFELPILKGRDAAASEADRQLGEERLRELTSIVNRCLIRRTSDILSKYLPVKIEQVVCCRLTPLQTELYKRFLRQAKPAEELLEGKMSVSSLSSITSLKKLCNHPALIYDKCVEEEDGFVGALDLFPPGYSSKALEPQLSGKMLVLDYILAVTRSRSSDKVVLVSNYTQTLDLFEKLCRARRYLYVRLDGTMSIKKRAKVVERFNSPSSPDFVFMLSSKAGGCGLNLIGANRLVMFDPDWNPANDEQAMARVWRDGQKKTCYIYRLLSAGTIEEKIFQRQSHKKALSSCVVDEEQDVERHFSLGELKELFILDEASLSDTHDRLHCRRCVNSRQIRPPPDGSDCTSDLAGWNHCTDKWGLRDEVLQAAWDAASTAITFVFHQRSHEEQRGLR
Description: RAD54 Holliday junction migration blockers – biochemical, fluorescence, cherry-picked samples, dose series, confirmation (AID 651657). In kind it is functional.

For experiment [13], the target named is T5, Tyrosine-protein phosphatase non-receptor type 7 (Homo sapiens, UniProt P35236).
T5 sequence (P35236 whole entry): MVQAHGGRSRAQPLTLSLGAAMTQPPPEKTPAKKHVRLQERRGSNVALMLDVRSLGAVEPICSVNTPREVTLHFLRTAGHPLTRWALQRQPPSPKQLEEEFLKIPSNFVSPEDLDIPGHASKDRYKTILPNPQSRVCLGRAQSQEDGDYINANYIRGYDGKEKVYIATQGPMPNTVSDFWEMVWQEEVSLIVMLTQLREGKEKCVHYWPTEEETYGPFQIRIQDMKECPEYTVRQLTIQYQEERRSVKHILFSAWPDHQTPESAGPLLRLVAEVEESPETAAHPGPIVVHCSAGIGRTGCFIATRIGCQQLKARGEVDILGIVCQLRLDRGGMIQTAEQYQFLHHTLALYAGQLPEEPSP
In kind it is functional.

Experiment [14] concerns the target Glyceraldehyde-3-phosphate dehydrogenase (Homo sapiens, UniProt P04406).
Experiment [15] concerns the target T6, Dual specificity protein phosphatase 6 (Rattus norvegicus, UniProt Q64346).
T6 sequence (Q64346 whole entry): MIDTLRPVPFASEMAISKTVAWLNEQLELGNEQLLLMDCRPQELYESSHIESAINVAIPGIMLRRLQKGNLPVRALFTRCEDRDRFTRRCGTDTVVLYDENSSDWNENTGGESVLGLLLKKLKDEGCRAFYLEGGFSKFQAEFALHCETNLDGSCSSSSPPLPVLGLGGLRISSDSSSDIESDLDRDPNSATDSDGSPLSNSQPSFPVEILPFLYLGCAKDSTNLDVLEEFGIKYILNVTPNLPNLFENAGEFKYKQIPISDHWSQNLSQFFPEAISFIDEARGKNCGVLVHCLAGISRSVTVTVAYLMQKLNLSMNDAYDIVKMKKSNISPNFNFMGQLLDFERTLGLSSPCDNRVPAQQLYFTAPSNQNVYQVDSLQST

Experiment [16] has as its target T7, Dual specificity protein phosphatase 3 (Homo sapiens, UniProt P51452). Description: SAR VHR1 Fluorescent Assay for In Vitro dose response studies. [Related pubchem assays (depositor defined):AID1654, AID1661, AID1878, AID1992, AID2004, AID2070, AID2085]. It counts as functional.
The target in experiment [17] is T7, Dual specificity protein phosphatase 3. Kind of experiment: MOA VHR1 Fluorescent secondary assay for identification of redox-state modulating compounds. [Related pubchem assays (depositor defined):AID1654, AID1661, AID1878, AID1957].
Experiment [18] deals with T5, Tyrosine-protein phosphatase non-receptor type 7. Description: redox-active compounds inhibiting HePTP phosphatase – biochemical, fluorescence, mechanism study (AID 2068). It counts as functional.
Experiment [19] addresses T6, Dual specificity protein phosphatase 6. In kind it is functional.
A short description of experiment [20]: viability of PTEN-deleted HCT116 cells – cell-based, HCT116 PTEN knockout, dose response (AID 1047).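 Further: HCT116 colon tumor cells with PTEN knocked out; cells exposed to compound for 60 hours before readout; potency for loss of cell viability measured by luminescence.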 It counts as functional.
Experiment [21] can be described thus: viability of HCT116 lacking mutant beta-catenin – cell-based, human colon tumor, dose response (AID 1045).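 Further: HCT116 colon tumor cells with beta catenin knocked out; cells exposed to compound for 60 hours.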 It counts as functional.
The target in experiment [22] is Scavenger receptor class B member 1 (Mus musculus, UniProt Q61009). Kind of experiment: mouse SR-BI DiI-HDL uptake blockers – ldlA[mSR-BI] cells, fluorescence, cherry pick, dose response (AID 493194).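 Further: cellular uptake of fluorescent DiI-labeled HDL measured as cell fluorescence.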 In kind it is functional, cell-based.
Chain of Scavenger receptor class B member 1 (Q61009 whole entry): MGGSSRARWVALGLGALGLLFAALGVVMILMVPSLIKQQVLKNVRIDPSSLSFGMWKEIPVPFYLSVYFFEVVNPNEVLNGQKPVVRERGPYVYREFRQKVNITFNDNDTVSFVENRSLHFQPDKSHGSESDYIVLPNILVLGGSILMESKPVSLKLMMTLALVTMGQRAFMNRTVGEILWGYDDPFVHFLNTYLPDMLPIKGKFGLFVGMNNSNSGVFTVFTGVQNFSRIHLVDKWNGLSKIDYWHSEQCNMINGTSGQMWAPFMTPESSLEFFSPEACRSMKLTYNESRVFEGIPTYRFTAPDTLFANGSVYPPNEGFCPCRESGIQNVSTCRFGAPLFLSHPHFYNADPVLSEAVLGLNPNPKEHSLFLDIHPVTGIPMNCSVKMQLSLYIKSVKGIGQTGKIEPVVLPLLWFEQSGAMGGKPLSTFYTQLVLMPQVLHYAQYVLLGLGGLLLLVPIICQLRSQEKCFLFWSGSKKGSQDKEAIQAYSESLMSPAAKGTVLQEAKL
The target of experiment [23] is Neuropeptides B/W receptor type 1 (Homo sapiens, UniProt P48145). Description: Fluorescence-based dose response cell-based high throughput screening assay to identify antagonists of the G-protein coupled receptor 7 (GPR7). [Related pubchem assays: 1952 (Screening assay (GPR7 antagonists).), 1880 (Summary AID.)]. In kind it is functional.
Chain of Neuropeptides B/W receptor type 1 (P48145 whole entry): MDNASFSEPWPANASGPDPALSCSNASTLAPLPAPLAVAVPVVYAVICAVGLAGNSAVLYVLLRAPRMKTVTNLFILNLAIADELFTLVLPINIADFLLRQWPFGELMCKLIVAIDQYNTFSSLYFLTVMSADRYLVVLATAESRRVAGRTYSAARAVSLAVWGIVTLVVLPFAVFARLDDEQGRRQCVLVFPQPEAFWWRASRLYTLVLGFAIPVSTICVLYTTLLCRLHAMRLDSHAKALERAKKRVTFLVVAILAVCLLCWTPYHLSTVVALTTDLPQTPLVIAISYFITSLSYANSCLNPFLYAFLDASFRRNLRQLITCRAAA
The target in experiment [24] is Melanin-concentrating hormone receptor 1 (Homo sapiens, UniProt Q99705). Kind of experiment: Fluorescence-based counterscreen for antagonists of the G-protein coupled receptor 7 (GPR7): cell-based high throughput dose response assay to identify antagonists of the melanin-concentrating hormone receptor 1 (MCHR1). It counts as functional.
Chain of Melanin-concentrating hormone receptor 1 (Q99705 whole entry): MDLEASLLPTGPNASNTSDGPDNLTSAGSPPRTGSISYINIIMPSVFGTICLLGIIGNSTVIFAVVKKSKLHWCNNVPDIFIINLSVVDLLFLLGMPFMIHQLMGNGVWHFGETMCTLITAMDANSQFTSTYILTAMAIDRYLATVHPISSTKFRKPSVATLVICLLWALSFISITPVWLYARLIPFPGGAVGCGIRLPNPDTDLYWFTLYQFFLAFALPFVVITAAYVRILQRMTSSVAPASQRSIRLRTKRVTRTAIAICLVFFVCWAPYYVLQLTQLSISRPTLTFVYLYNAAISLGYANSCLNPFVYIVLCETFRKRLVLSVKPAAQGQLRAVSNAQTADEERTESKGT

T7 sequence (P51452 whole entry): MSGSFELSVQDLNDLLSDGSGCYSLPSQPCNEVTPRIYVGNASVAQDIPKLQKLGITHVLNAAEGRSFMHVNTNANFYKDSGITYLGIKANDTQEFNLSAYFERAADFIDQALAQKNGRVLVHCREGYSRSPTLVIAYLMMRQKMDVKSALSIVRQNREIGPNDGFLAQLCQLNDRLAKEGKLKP
Chain of Glyceraldehyde-3-phosphate dehydrogenase (P04406 whole entry): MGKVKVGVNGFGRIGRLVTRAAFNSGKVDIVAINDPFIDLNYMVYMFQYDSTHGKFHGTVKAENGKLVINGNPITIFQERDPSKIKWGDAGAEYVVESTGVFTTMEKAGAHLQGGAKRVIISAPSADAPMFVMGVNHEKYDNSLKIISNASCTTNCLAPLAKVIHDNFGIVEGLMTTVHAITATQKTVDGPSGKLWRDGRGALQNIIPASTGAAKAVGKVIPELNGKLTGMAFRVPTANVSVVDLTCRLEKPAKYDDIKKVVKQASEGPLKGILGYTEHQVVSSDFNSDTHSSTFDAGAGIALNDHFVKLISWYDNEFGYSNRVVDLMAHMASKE
Chain of FAD-linked sulfhydryl oxidase ALR (P55789 whole entry): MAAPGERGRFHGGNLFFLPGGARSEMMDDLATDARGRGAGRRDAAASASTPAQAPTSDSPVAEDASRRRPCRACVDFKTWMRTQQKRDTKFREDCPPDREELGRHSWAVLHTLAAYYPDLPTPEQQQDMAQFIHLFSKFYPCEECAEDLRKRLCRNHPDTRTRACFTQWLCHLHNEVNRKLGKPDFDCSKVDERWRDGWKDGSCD
Chain of Mu-type opioid receptor (P35372 whole entry): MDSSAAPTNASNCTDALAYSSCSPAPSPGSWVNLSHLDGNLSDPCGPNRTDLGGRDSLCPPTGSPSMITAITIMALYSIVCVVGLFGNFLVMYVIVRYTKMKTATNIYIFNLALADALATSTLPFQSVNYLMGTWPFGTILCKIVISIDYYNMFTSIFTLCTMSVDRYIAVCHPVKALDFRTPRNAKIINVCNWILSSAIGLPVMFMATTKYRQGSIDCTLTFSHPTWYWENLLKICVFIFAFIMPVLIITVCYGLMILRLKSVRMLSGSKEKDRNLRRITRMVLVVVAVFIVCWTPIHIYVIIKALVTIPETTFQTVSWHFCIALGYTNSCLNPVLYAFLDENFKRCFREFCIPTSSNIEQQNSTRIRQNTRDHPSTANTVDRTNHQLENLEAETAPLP

`O=C(NC(=S)Nc1ccccc1N1CCCC1)c1ccccc1Br`: the half-maximal effective concentration (EC50) (in general, the concentration giving half of the maximal effect) in [1] is 32.3 µM (active); with Streptococcus [2] it was > 500 µM (not active); at Streptokinase A, 6.61 µM (active); in the experiment on Streptococcus [3] it was > 150 µM (not active).

Turning to `CCc1ccc(NS(=O)(=O)c2ccc(C)c(C(=O)N3CCOCC3)c2)cc1`, the IC50 (usually the concentration that gives 50% inhibition) in experiment [4] is > 100 µM (inactive); in experiment [5], 6.21 µM (active).

`COC(=O)c1ccc(Oc2nc(Nc3ccc(F)cc3)nc(N3CCCC3)n2)cc1`: the AC50 (as a rule, the midpoint of the concentration-response curve, whichever way the signal moves) in the experiment on HeLa was 289 µM (active).

For the molecule `Oc1ccc(CCNc2c3ccccc3nc3ccccc23)cc1O`, the EC50 is > 300 µM (not active) in [6]; > 350 µM (not active) in “cells [7]”; 10.1 µM (active) in experiment [8]; > 350 µM (not active) in “cells [9]”; 92.5 µM (inactive) on Mu-type opioid receptor; 76.1 µM (inactive) in experiment [11]. Besides, the IC50 is 2.49 µM (active) on Aspartyl aminopeptidase, > 59.6 µM (not active) on Procathepsin L and 8.41 µM (active) on Large T antigen. Moreover, the AC50 in experiment [10] is 2.76 µM (active); in [12], 1.87 µM (active).

With `O=c1/c(=C/c2ccc(-c3cc(Cl)cc(Cl)c3)o2)sc2nc3cc(Br)cnc3n12`, the IC50 was > 100 µM (not active) in experiment [13]; > 100 µM (not active) in [14]; > 100 µM (inactive) in [15]; 8.81 µM (active) in experiment [16]; 2.23 µM (active) in experiment [17]; 1.15 µM (active) in experiment [18]. The IC50 in experiment [19] was > 100 µM (inactive).

With `COc1ccc(-c2nc(-c3ccc4c(c3)OCO4)[nH]c2-c2ccc(OC)cc2)cc1`, the EC50 in [1] was 2.62 µM (active); on Streptokinase A, 2.07 µM (active); in experiment [20], 16.7 µM (active); in [21], 19.2 µM (active); with Streptococcus [3] it was > 150 µM (not active). Further, the concentration at half-maximal activity (AC50) in [22] is 18.1 µM (active).

Regarding `Clc1ccc(CN(Cc2ccc(Cl)cc2)c2nnn[nH]2)cc1`, the half-inhibitory concentration (IC50) in experiment [23] and in experiment [24] was > 14.6 µM (not active) in each case.
